# Measured values taken from patent US5972939A, “Cyclopentene derivatives useful as antagonists of the motilin receptor” (Ortho-McNeil Pharmaceutical, Inc., priority 1998, dated 1999).
# pIC50: −log10 of the molar value.
# Target: T1, motilin receptors located on the colon of mature rabbits (Oryctolagus cuniculus, UniProt G1T803)
# T1 construct: The colon from mature New Zealand rabbits was removed, dissected free from the mucosa and serosa layers, and diced into small pieces; from tissue; host or cells: colon smooth muscle of mature New Zealand rabbits, crude membrane homogenate
# Test: competition with radiolabeled (125I) porcine motilin for the motilin receptors of rabbit colon
# Format: binding
# Details: @ 0.1 μM
# Protocol: The compounds of the invention were tested for their ability to compete with radiolabeled motilin (porcine) for the motilin receptors located on the colon of mature rabbits. The colon from mature New Zealand rabbits was removed, dissected free from the mucosa and serosa layers, and diced into small pieces. […] The homogenate was centrifuged at 1000×g for 15 min. and the supernatant discarded. The pellet was washed twice before being suspended in homogenizing buffer. This crude homogenate is then passed first through a 19 gauge needle then a 23 gauge needle to further suspend the material and stored as -80° C. […] After 30 min, at 30° C., the material was cooled on ice and centrifuged at 13,000×g for 1 minute. The pellet was washed with 1 mL 0.9% saline and centrifuged at 13,000×g for 15 seconds. The pellet was washed again with cold saline and the supernatant was removed. The pellet was counted in the gamma counter to determine the percentage of […] motilin and thereby the percent inhibition of the test compound. IC50s were determined for some compounds by standard techniques.
# T1 sequence (G1T803 1-400): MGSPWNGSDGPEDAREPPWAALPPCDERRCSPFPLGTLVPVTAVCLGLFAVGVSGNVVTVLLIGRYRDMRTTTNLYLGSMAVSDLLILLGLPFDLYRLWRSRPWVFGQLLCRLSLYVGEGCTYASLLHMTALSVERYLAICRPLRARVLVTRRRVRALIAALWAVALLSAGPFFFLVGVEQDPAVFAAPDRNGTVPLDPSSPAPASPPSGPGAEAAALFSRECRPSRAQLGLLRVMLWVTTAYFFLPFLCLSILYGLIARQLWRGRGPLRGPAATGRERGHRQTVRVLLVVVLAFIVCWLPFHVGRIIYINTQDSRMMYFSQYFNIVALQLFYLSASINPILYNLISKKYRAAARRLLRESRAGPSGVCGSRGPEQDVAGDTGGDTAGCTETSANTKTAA
row,SMILES,inhibition at 0.1 µM
1,O=C(NC1(Cc2ccccc2)C=C(CN(C(=S)Nc2ccccc2)c2cccc(OCCN3CCOCC3)c2)CC1)C(Cl)(Cl)Cl (stereo not shown) [Compound 11],45%
2,O=C(c1cccc(Br)c1)N(CC1=CC(Cc2ccccc2)(NC(=O)C(Cl)(Cl)Cl)CC1)c1cccc(OCCN2CCOCC2)c1 (stereo not shown) [Compound 101],54%
3,O=C(c1ccc(Cl)cc1)N(CC1=CC(Cc2ccccc2)(NC(=O)C(Cl)(Cl)Cl)CC1)c1cccc(OCCN2CCOCC2)c1 (stereo not shown) [Compound 102],61%
4,O=C(c1cccc(C(F)(F)F)c1)N(CC1=CC(Cc2ccccc2)(NC(=O)C(Cl)(Cl)Cl)CC1)c1cccc(OCCCN2CCOCC2)c1 (stereo not shown) [Compound 103],52%
5,O=C(c1ccc(C(F)(F)F)cc1)N(CC1=CC(Cc2ccccc2)(NC(=O)C(Cl)(Cl)Cl)CC1)c1cccc(OCCN2CCOCC2)c1 (stereo not shown) [Compound 104],29%
6,O=C(c1ccc(I)cc1)N(CC1=CC(Cc2ccccc2)(NC(=O)C(Cl)(Cl)Cl)CC1)c1cccc(OCCN2CCOCC2)c1 (stereo not shown) [Compound 105],59%
7,O=C(c1cc(F)cc(F)c1)N(CC1=CC(Cc2ccccc2)(NC(=O)C(Cl)(Cl)Cl)CC1)c1cccc(OCCN2CCOCC2)c1 (stereo not shown) [Compound 106],78%

# Same assay, conditions: @ 0.5 μM
row,SMILES,inhibition at 0.5 µM
1,COc1cccc(C(=O)N(CC2=CC(Cc3ccccc3)(NC(=O)C(Cl)(Cl)Cl)CC2)c2cccc(OCCN3CCOCC3)c2)c1 (stereo not shown) [Compound 90],65%

# Same assay, conditions: @ 1.0 μM
row,SMILES,inhibition at 1 µM
1,"CC(=O)NC1(Cc2ccccc2)C=C(CN(C(=O)Nc2ccccc2)c2cccc(OCCN3CCOCC3)c2)CC1 (stereo not shown) [Compound 15, 3-Benzyl-3-acetylamino-1-(N-phenylaminocarbonyl)-N-[(3-(2-morpholinoethoxy)phenyl)amino]methylcyclopentene]",40%
2,O=C(Nc1ccccc1)N(CC1=CC(Cc2ccccc2)(NC(=O)C(Cl)(Cl)Cl)CC1)c1cccc(CCCN2CCOCC2)c1 (stereo not shown) [Compound 19],59%
3,O=C(c1ccc(Br)cc1)N(CC1=CC(Cc2ccccc2)(NC(=O)C(Cl)(Cl)Cl)CC1)c1cc(OCCN2CCOCC2)ccc1Cl (stereo not shown) [Compound 38],59%
4,CN(C)c1ccc(C(=O)N(CCc2cccc(OCCN3CCOCC3)c2)CC2=CC(Cc3ccccc3)(NC(=O)C(Cl)(Cl)Cl)CC2)cc1 (stereo not shown) [Compound 96],62%
5,O=C(c1ccc(F)cc1)N(CC1=CC(Cc2ccccc2)(NC(=O)C(Cl)(Cl)Cl)CC1)c1cccc(CCCN2CCOCC2)c1 (stereo not shown) [Compound 98],17%
6,O=C(c1cc(C(F)(F)F)cc(C(F)(F)F)c1)N(CC1=CC(Cc2ccccc2)(NC(=O)C(Cl)(Cl)Cl)CC1)c1cccc(OCCN2CCOCC2)c1 (stereo not shown) [Compound 99],28%
7,O=C(c1cccs1)N(CC1=CC(Cc2ccccc2)(NC(=O)C(Cl)(Cl)Cl)CC1)c1cccc(OCCN2CCOCC2)c1 (stereo not shown) [Compound 108],84%
8,CC(C)(C)c1ccc(C(=O)N(CC2=CC(Cc3ccccc3)(NC(=O)C(Cl)(Cl)Cl)CC2)c2cccc(OCCN3CCOCC3)c2)cc1 (stereo not shown) [Compound 110],19%
9,O=C(c1ccncc1)N(CC1=CC(Cc2ccccc2)(NC(=O)C(Cl)(Cl)Cl)CC1)c1cccc(OCCN2CCOCC2)c1 (stereo not shown) [Compound 111],51%
10,O=C(Nc1cccc(Br)c1)N(CC1=CC(Cc2ccccc2)(NC(=O)C(Cl)(Cl)Cl)CC1)c1cccc(OCCN2CCOCC2)c1 (stereo not shown) [Compound 112],51%
11,O=C(c1cccc(F)c1)N(CC1=CC(Cc2ccccc2)(NC(=O)C(Cl)(Cl)Cl)CC1)c1cc(OCCN2CCOCC2)ccc1Cl (stereo not shown) [Compound 113],59%

# Same assay, conditions: @ 2.0 μM
row,SMILES,inhibition at 2 µM
1,O=C(Oc1cccc(CCN(CCN2CCOCC2)CC2=CC(Cc3ccccc3)(NC(=O)C(Cl)(Cl)Cl)CC2)c1)c1ccccc1 (stereo not shown) [Compound 85],9%
2,CN(C)CCSc1ccc(N(CC2=CC(Cc3ccccc3)(NC(=O)C(Cl)(Cl)Cl)CC2)C(=O)c2ccccc2)cc1 (stereo not shown) [Compound 86],49%
3,COc1ccc(CCN(CCN2CCOCC2)CC2=CC(Cc3ccccc3)(NC(=O)C(Cl)(Cl)Cl)CC2)cc1OC(=O)c1ccccc1 (stereo not shown) [Compound 95],22%

# Same assay, conditions: @ 5.0 μM
row,SMILES,inhibition at 5 µM
1,COc1ccc(NC(=O)N(CC2=CC(Cc3ccccc3)(NC(=O)C(Cl)(Cl)Cl)CC2)c2cccc(OCCN3CCOCC3)c2)cc1 (stereo not shown) [Compound 89],26%

# Same assay, conditions: @ 10 μM
row,SMILES,inhibition at 10 µM
1,O=C(NC1(Cc2ccccc2)C=C(CNc2cccc(OCCN3CCOCC3)c2)CC1)C(Cl)(Cl)Cl (stereo not shown) [Compound 6],37%
2,"O=C(Nc1ccccc1)N(CC1=CC(Cc2ccccc2)(NC(=O)C(Cl)(Cl)Cl)CC1)c1cccc(SCCN2CCOCC2)c1 (stereo not shown) [Compound 22, 3-Benzyl-3-trichloroacetylamino-1-(N-phenylaminocarbonyl)-N-[(3-(2-morpholinoethyl)phenyl)thio]methylcyclopentene]",83%
3,O=C(c1ccccc1)N(CC1=CC(Cc2ccccc2)(NC(=O)C(Cl)(Cl)Cl)CC1)Cc1cccc(OCCN2CCOCC2)c1 (stereo not shown) [Compound 32],70%
4,COc1ccc(N(CC2=CC(Cc3ccccc3)(NC(=O)C(Cl)(Cl)Cl)CC2)C(=O)c2ccccc2)cc1OCCN1CCOCC1 (stereo not shown) [Compound 34],74%
5,COc1ccc(N(CCN2CCOCC2)CC2=CC(Cc3ccccc3)(NC(=O)C(Cl)(Cl)Cl)CC2)cc1OCCN1CCOCC1 (stereo not shown) [Compound 40],27%
6,O=C(c1ccccc1)N(CCc1cccc(OCCN2CCOCC2)c1)CC1=CC(Cc2ccccc2)(NC(=O)C(Cl)(Cl)Cl)CC1 (stereo not shown) [Compound 41],82%
7,CCOC(=O)COc1cccc(N(CC2=CC(Cc3ccccc3)(NC(=O)C(Cl)(Cl)Cl)CC2)C(=O)c2ccccc2)c1 (stereo not shown) [Compound 46],51%
8,O=C(NC1(Cc2ccccc2)C=C(CNc2ccc(O)cc2)CC1)C(Cl)(Cl)Cl (stereo not shown) [Compound 69],11%
9,CCN(CC)CCN(CC1=CC(Cc2ccccc2)(NC(=O)C(Cl)(Cl)Cl)CC1)c1ccccc1OCCN1CCOCC1 (stereo not shown) [Compound 70],80%
10,CCN(CC)CCN(CC1=CC(Cc2ccccc2)(NC(=O)C(Cl)(Cl)Cl)CC1)c1ccc(OCCN(C)C)cc1 (stereo not shown) [Compound 71],85%
11,CCN(CC)CCN(CC1=CC(Cc2ccccc2)(NC(=O)C(Cl)(Cl)Cl)CC1)c1ccccc1O (stereo not shown) [Compound 73],84%
12,CCN(CC)CCN(CC1=CC(Cc2ccccc2)(NC(=O)C(Cl)(Cl)Cl)CC1)c1ccc(O)cc1 (stereo not shown) [Compound 74],81%
13,Nc1cccc(NCC2=CC(Cc3ccccc3)(NC(=O)C(Cl)(Cl)Cl)CC2)c1 (stereo not shown) [Compound 75],41%
14,CCN(CC)CCN(CCc1ccc(O)cc1)CC1=CC(Cc2ccccc2)(NC(=O)C(Cl)(Cl)Cl)CC1 (stereo not shown) [Compound 76],84%
15,CCN(CC)CCSc1cccc(N(CC2=CC(Cc3ccccc3)(NC(=O)C(Cl)(Cl)Cl)CC2)C(=O)c2ccccc2)c1 (stereo not shown) [Compound 79],98%
16,O=C(c1ccc(F)cc1)N(CC1=CC(Cc2ccccc2)(NC(=O)C(Cl)(Cl)Cl)CC1)c1cccc(SCCN2CCOCC2)c1 (stereo not shown) [Compound 80],79%
17,O=C(NC1(Cc2ccccc2)C=C(CNCCc2cccc(SCCN3CCOCC3)c2)CC1)C(Cl)(Cl)Cl (stereo not shown) [Compound 81],81%
18,O=C(c1ccccc1)N(CC1=CC(Cc2ccccc2)(NC(=O)C(Cl)(Cl)Cl)CC1)c1cccc(SCCN2CCOCC2)c1 (stereo not shown) [Compound 82],80%
19,CCN(CC)CCOc1cccc(CN(CC2=CC(Cc3ccccc3)(NC(=O)C(Cl)(Cl)Cl)CC2)C(=O)c2ccccc2)c1 (stereo not shown) [Compound 83],100%
20,COc1ccc(C(=O)N(CC2=CC(Cc3ccccc3)(NC(=O)C(Cl)(Cl)Cl)CC2)c2cccc(SCCN3CCOCC3)c2)cc1 (stereo not shown) [Compound 84],59%
21,COc1ccc(NCC2=CC(Cc3ccccc3)(NC(=O)C(Cl)(Cl)Cl)CC2)cc1O (stereo not shown) [Compound 87],32%
22,O=C(NC1(Cc2ccccc2)C=C(CN(Cc2ccccc2)Cc2cccc(OCCN3CCOCC3)c2)CC1)C(Cl)(Cl)Cl (stereo not shown) [Compound 88],94%
23,CCN(CC)CCN(CCc1cccc(OCCN2CCOCC2)c1)CC1=CC(Cc2ccccc2)(NC(=O)C(Cl)(Cl)Cl)CC1 (stereo not shown) [Compound 92],95%
24,COc1ccc(N(CC2=CC(Cc3ccccc3)(NC(=O)C(Cl)(Cl)Cl)CC2)Cc2ccccc2)cc1OCCN1CCOCC1 (stereo not shown) [Compound 93],62%
25,COc1ccc(NCC2=CC(Cc3ccccc3)(NC(=O)C(Cl)(Cl)Cl)CC2)cc1OCCN1CCOCC1 (stereo not shown) [Compound 94],48%

# Same assay, conditions: @ 100 μM
row,SMILES,inhibition at 100 µM
1,O=C(c1ccc(F)c(F)c1)N(CC1=CC(Cc2ccccc2)(NC(=O)C(Cl)(Cl)Cl)CC1)c1cc(OCCN2CCOCC2)ccc1Cl (stereo not shown) [Compound 114],52%

# Same assay, conditions: rabbit colon, 125I motilin; read-out: IC50
row,SMILES,pIC50
1,O=C(c1ccc(Cl)c(Cl)c1)N(CC1=CC(Cc2ccccc2)(NC(=O)C(Cl)(Cl)Cl)CC1)c1cccc(OCCN2CCOCC2)c1 (stereo not shown) [Compound 97],6.59
2,O=C(c1c(F)c(F)c(F)c(F)c1F)N(CC1=CC(Cc2ccccc2)(NC(=O)C(Cl)(Cl)Cl)CC1)c1cccc(OCCN2CCOCC2)c1 (stereo not shown) [Compound 100],6.00
3,N#Cc1ccc(C(=O)N(CC2=CC(Cc3ccccc3)(NC(=O)C(Cl)(Cl)Cl)CC2)c2cccc(OCCN3CCOCC3)c2)cc1 (stereo not shown) [Compound 109],7.01

# Same assay, conditions: rabbit colon, 125I motilin; read-out: IC50 (unit inferred)
row,SMILES,pIC50
1,CCN(CC)CCN(CC1=CC(Cc2ccccc2)(NC(=O)C(Cl)(Cl)Cl)CC1)c1ccccc1OCCN1CCOCC1 (stereo not shown) [Compound 72],6.05
2,CCN(CC)CCOc1cccc(CN(CC2=CC(Cc3ccccc3)(NC(=O)C(Cl)(Cl)Cl)CC2)C2CCN(Cc3ccccc3)CC2)c1 (stereo not shown) [Compound 77],6.10
3,CC(=O)N(CC1=CC(Cc2ccccc2)(NC(=O)C(Cl)(Cl)Cl)CC1)c1cccc(OCCN2CCOCC2)c1 (stereo not shown) [Compound 78],5.99
